Reference: PubChem BioAssay (NCI)
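96-well plates; 48 h exposure; 5 concentrations. Endpoints by linear interpolation between flanking doses. Not reached: highest tested concentration assigned. TGI: concentration producing complete growth inhibition.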

How the values were obtained:
Test in all cases: NCI-60 cell line screen, 48 h
[1] = tested on: A549 NSCLC
[2] = tested on: HOP-92 NSCLC
[3] = tested on: RXF 393 renal
[4] = tested on: M14 melanoma
[5] = tested on: EKVX NSCLC
[6] = tested on: HOP-62 NSCLC
[7] = tested on: UACC-257 melanoma
[8] = tested on: 786-0 renal
[9] = tested on: SW-620 colon
[10] = tested on: MDA-MB-231 breast
[11] = tested on: BT-549 breast
[12] = tested on: HCT-15 colon
[13] = tested on: ACHN renal
[14] = tested on: NCI-H460 lung
[15] = tested on: MOLT-4 leukemia
[16] = tested on: DU-145 prostate
[17] = tested on: SF-268 CNS
[18] = tested on: OVCAR-4 ovarian
[19] = tested on: SF-539 CNS
[20] = tested on: OVCAR-8 ovarian
[21] = tested on: MALME-3M melanoma
[22] = tested on: HCT-116 colon
[23] = tested on: A498 renal
[24] = tested on: UO-31 renal
[25] = tested on: NCI-H23 lung
[26] = tested on: HT29 colon
[27] = tested on: SNB-19 CNS
[28] = tested on: T-47D breast
[29] = tested on: HS 578T breast
[30] = tested on: CAKI-1 renal
[31] = tested on: U251 CNS
[32] = tested on: HL-60(TB) leukemia
[33] = tested on: K-562 leukemia
[34] = tested on: IGROV1 ovarian
[35] = tested on: MDA-N
[36] = tested on: LOX IMVI melanoma
[37] = tested on: COLO 205 colon
[38] = tested on: SF-295 CNS
[39] = tested on: SK-MEL-28 melanoma
[40] = tested on: CCRF-CEM leukemia
[41] = tested on: NCI-H522 lung
[42] = tested on: SNB-75 CNS
[43] = tested on: SN12C renal
[44] = tested on: MDA-MB-435
[45] = tested on: TK-10 renal
[46] = tested on: NCI/ADR-RES ovarian
[47] = tested on: KM12 colon
[48] = tested on: NCI-H226 lung
[49] = tested on: OVCAR-5 ovarian
[50] = tested on: MCF7 breast
[51] = tested on: OVCAR-3 ovarian
[52] = tested on: HCC-2998 colon
[53] = tested on: SK-MEL-5 melanoma
[54] = tested on: UACC-62 melanoma
[55] = tested on: SK-OV-3 ovarian
[56] = tested on: SK-MEL-2 melanoma
[57] = tested on: SR leukemia
[58] = tested on: RPMI-8226 leukemia
[59] = tested on: PC-3 prostate

## Cc1nn2c(C(=O)N/N=C/c3ccccc3O)c(C)nc2s1
[1]
  TGI: > 100 µM
[2]
  TGI: > 100 µM
[3]
  TGI: > 100 µM
[4]
  TGI: > 100 µM
[5]
  TGI: > 100 µM
[6]
  TGI: > 100 µM
[7]
  TGI: > 100 µM
[8]
  TGI: > 100 µM
[9]
  TGI: > 100 µM
[10]
  TGI: > 100 µM
[11]
  TGI: > 100 µM
[12]
  TGI: > 100 µM
[13]
  TGI: > 100 µM
[14]
  TGI: > 100 µM
[15]
  TGI: > 100 µM
[16]
  TGI: > 100 µM
[17]
  TGI: > 100 µM
[18]
  TGI: > 100 µM
[19]
  TGI: > 100 µM
[20]
  TGI: > 100 µM
[21]
  TGI: > 100 µM
[22]
  TGI: > 100 µM
[23]
  TGI: > 100 µM
[24]
  TGI: > 100 µM
[25]
  TGI: > 100 µM
[26]
  TGI: > 100 µM
[27]
  TGI: > 100 µM
[28]
  TGI: > 100 µM
[29]
  TGI: > 100 µM
[30]
  TGI: > 100 µM
[31]
  TGI: > 100 µM
[32]
  TGI: > 100 µM
[33]
  TGI: > 100 µM
[34]
  TGI: > 100 µM
[35]
  TGI: > 100 µM
[36]
  TGI: > 100 µM
[37]
  TGI: > 100 µM
[38]
  TGI: > 100 µM
[39]
  TGI: > 100 µM
[40]
  TGI: > 100 µM
[41]
  TGI: > 100 µM
[42]
  TGI: > 100 µM
[43]
  TGI: > 100 µM
[44]
  TGI: > 100 µM
[45]
  TGI: > 100 µM
[46]
  TGI: > 100 µM
[47]
  TGI: > 100 µM
[48]
  TGI: > 100 µM
[49]
  TGI: > 100 µM
[50]
  TGI: > 100 µM
[51]
  TGI: 90.6 µM
[52]
  TGI: > 100 µM
[53]
  TGI: > 100 µM
[54]
  TGI: > 100 µM

## CC(C)(C)OC(=O)Nc1nnc(S(N)(=O)=O)s1
[1]
  TGI: > 100 µM
[2]
  TGI: > 100 µM
[3]
  TGI: > 100 µM
[55]
  TGI: > 100 µM
[4]
  TGI: > 100 µM
[5]
  TGI: > 100 µM
[6]
  TGI: > 100 µM
[56]
  TGI: > 100 µM
[7]
  TGI: > 100 µM
[8]
  TGI: > 100 µM
[9]
  TGI: > 100 µM
[10]
  TGI: > 100 µM
[11]
  TGI: > 100 µM
[12]
  TGI: > 100 µM
[13]
  TGI: > 100 µM
[14]
  TGI: > 100 µM
[15]
  TGI: > 100 µM
[16]
  TGI: > 100 µM
[17]
  TGI: > 100 µM
[18]
  TGI: > 100 µM
[19]
  TGI: > 100 µM
[20]
  TGI: > 100 µM
[21]
  TGI: > 100 µM
[22]
  TGI: > 100 µM
[23]
  TGI: > 100 µM
[24]
  TGI: > 100 µM
[25]
  TGI: > 100 µM
[26]
  TGI: > 100 µM
[27]
  TGI: > 100 µM
[28]
  TGI: > 100 µM
[29]
  TGI: > 100 µM
[30]
  TGI: > 100 µM
[31]
  TGI: > 100 µM
[32]
  TGI: > 100 µM
[33]
  TGI: > 100 µM
[35]
  TGI: > 100 µM
[36]
  TGI: > 100 µM
[37]
  TGI: > 100 µM
[38]
  TGI: > 100 µM
[39]
  TGI: > 100 µM
[40]
  TGI: > 100 µM
[41]
  TGI: > 100 µM
[57]
  TGI: > 100 µM
[43]
  TGI: > 100 µM
[44]
  TGI: > 100 µM
[45]
  TGI: > 100 µM
[46]
  TGI: > 100 µM
[47]
  TGI: > 100 µM
[48]
  TGI: > 100 µM
[49]
  TGI: > 100 µM
[58]
  TGI: > 100 µM
[50]
  TGI: > 100 µM
[51]
  TGI: > 100 µM
[52]
  TGI: > 100 µM
[53]
  TGI: > 100 µM
[54]
  TGI: > 100 µM

## CCOP(=O)(OCC)/C(C#N)=C/c1cnc(C)[nH]1
[1]
  TGI: > 100 µM
[2]
  TGI: > 100 µM
[3]
  TGI: > 100 µM
[55]
  TGI: > 100 µM
[4]
  TGI: > 100 µM
[5]
  TGI: > 100 µM
[6]
  TGI: > 100 µM
[56]
  TGI: > 100 µM
[7]
  TGI: > 100 µM
[8]
  TGI: > 100 µM
[9]
  TGI: > 100 µM
[10]
  TGI: > 100 µM
[11]
  TGI: > 100 µM
[12]
  TGI: > 100 µM
[13]
  TGI: > 100 µM
[14]
  TGI: > 100 µM
[15]
  TGI: > 100 µM
[16]
  TGI: > 100 µM
[17]
  TGI: > 100 µM
[18]
  TGI: > 100 µM
[19]
  TGI: > 100 µM
[20]
  TGI: > 100 µM
[21]
  TGI: > 100 µM
[22]
  TGI: > 100 µM
[23]
  TGI: > 100 µM
[24]
  TGI: > 100 µM
[25]
  TGI: > 100 µM
[26]
  TGI: > 100 µM
[27]
  TGI: > 100 µM
[29]
  TGI: > 100 µM
[30]
  TGI: > 100 µM
[31]
  TGI: > 100 µM
[32]
  TGI: > 100 µM
[33]
  TGI: > 100 µM
[34]
  TGI: > 100 µM
[35]
  TGI: > 100 µM
[36]
  TGI: > 100 µM
[37]
  TGI: > 100 µM
[38]
  TGI: > 100 µM
[39]
  TGI: > 100 µM
[40]
  TGI: > 100 µM
[41]
  TGI: > 100 µM
[57]
  TGI: > 100 µM
[42]
  TGI: > 100 µM
[43]
  TGI: > 100 µM
[44]
  TGI: > 100 µM
[45]
  TGI: > 100 µM
[46]
  TGI: > 100 µM
[47]
  TGI: > 100 µM
[48]
  TGI: > 100 µM
[49]
  TGI: > 100 µM
[58]
  TGI: > 100 µM
[59]
  TGI: > 100 µM
[50]
  TGI: > 100 µM
[51]
  TGI: > 100 µM
[52]
  TGI: > 100 µM
[53]
  TGI: > 100 µM
[54]
  TGI: > 100 µM
